# Laboratory results as given in patent publication US10730889B2, “Amido spirocyclic amide and sulfonamide derivatives” (Forma TM, LLC, priority 2012, dated 2020).
# pIC50: −log10 of the molar value.
# Molecular target: NAMPT (Homo sapiens (Human), UniProt P43490)
# Assay: Biochemical inhibition assay (NAMPT enzymatic reaction, NMN quantified by mass spectrometry)
# Conditions: not given
# Chain of NAMPT (P43490 whole entry): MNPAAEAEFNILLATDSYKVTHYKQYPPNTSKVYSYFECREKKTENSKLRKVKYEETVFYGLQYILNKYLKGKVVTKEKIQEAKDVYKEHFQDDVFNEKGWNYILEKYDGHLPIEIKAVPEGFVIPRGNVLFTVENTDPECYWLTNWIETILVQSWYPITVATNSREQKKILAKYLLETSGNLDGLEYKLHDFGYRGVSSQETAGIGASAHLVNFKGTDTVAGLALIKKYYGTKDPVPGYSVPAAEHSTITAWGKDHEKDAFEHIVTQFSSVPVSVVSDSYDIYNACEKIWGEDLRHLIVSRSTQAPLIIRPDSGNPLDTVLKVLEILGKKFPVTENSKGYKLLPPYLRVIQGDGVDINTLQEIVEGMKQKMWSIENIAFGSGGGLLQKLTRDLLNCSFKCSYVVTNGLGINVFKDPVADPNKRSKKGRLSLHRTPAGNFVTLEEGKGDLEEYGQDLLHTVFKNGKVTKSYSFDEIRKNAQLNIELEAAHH
row,pIC50,SMILES
1,6.45,"Cn1nc(C(=O)N2CCC3(CC2)CC3CNC(=O)c2cc3ccncc3o2)cc1C(F)(F)F (stereo not drawn) [Example 131, N-[[6-[1-methyl-5-(trifluoromethyl]pyrazole-3-carbonyl]-6-azaspiro[2.5]octan-2-yl]methyl]furo[2,3-c]pyridine-2-carboxamide]"
2,7.80,"CC(C)(C)OC(=O)N1CCC2(CC1)CC2CNC(=O)c1cnn2nccc2c1 (stereo not drawn) [Example 383, tert-Butyl 2-[(pyrazolo[1,5-b]pyridazine-5-carbonylamino)methyl]-6-azaspiro[2.5]octane-6-carboxylate]"

# Test system: A2780 cells
# Assay: In-vitro cell proliferation assay (SRB, 72 hours)
# Format: cell-based
# Conditions: Homo sapiens, A2780, 72 h, A2780 cells, 72 hours, SRB; read-out: Cell Proliferation (IC50)
row,pIC50,SMILES
1,6.49,"Cn1nc(C(=O)N2CCC3(CC2)CC3CNC(=O)c2cc3ccncc3o2)cc1C(F)(F)F (stereo not drawn) [Example 131, N-[[6-[1-methyl-5-(trifluoromethyl]pyrazole-3-carbonyl]-6-azaspiro[2.5]octan-2-yl]methyl]furo[2,3-c]pyridine-2-carboxamide]"
2,5.70,"CC(C)(C)OC(=O)N1CCC2(CC1)CC2CNC(=O)c1cnn2nccc2c1 (stereo not drawn) [Example 383, tert-Butyl 2-[(pyrazolo[1,5-b]pyridazine-5-carbonylamino)methyl]-6-azaspiro[2.5]octane-6-carboxylate]"
3,6.99,"CC(C)N1CCC(CC(=O)N2CCC3(CC2)CC3CNC(=O)c2cc3ccncc3o2)CC1 (stereo not drawn) [Example 148, N-[[6-[2-(1-isopropyl-4-piperidyl)acetyl]-6-azaspiro[2.5]octan-2-yl]methyl]furo[2,3-c]pyridine-2-carboxamide]"
4,6.68,"Cc1cnccc1C(=O)N1CCC2(CC1)CC2CNC(=O)c1cc2ccncc2o1 (stereo not drawn) [Example 232, N-[[6-(3-methylpyridine-4-carbonyl)-6-azaspiro[2.5]octan-2-yl]methyl]furo[2,3-c]pyridine-2-carboxamide]"
5,7.86,"Cc1nccn1Cc1ccc(C(=O)N2CCC3(CC2)CC3CNC(=O)c2cc3ccncc3o2)cc1 (stereo not drawn) [Example 246, N-[[6-[4-[(2-methylimidazol-1-yl)methyl]benzoyl]-6-azaspiro[2.5]octan-2-yl]methyl]furo[2,3-c]pyridine-2-carboxamide]"
6,5.58,"O=C(NCC1CC12CCN(C(=O)Cc1ccc(S(=O)(=O)C(F)(F)F)cc1)CC2)c1cc2ccncc2o1 (stereo not drawn) [Example 154, N-[[6-[2-[4-(trifluoromethylsulfonyl)phenyl]acetyl]-6-azaspiro[2.5]octan-2-yl]methyl]furo[2,3-c]pyridine-2-carboxamide]"
7,6.94,"Cc1nc(C)c(C(=O)N2CCC3(CC2)CC3CNC(=O)c2cc3cnccc3[nH]2)o1 (stereo not drawn) [Example 370, N-[[6-(2,4-dimethyloxazole-5-carbonyl)-6-azaspiro[2.5]octan-2-yl]methyl]-1H-pyrrolo[3,2-c]pyridine 2-carboxamide]"
8,6.15,"N#Cc1ccc(C(=O)N2CCC3(CC2)CC3CNC(=O)c2cc3ccncc3o2)cc1 (stereo not drawn) [Example 242, N-[[6-(4-cyanobenzoyl)-6-azaspiro[2.5]octan-2-yl]methyl]furo[2,3-c]pyridine-2-carboxamide]"
9,6.21,"CS(=O)(=O)c1cccc(CC(=O)N2CCC3(CC2)CC3CNC(=O)c2cc3ccncc3o2)c1 (stereo not drawn) [Example 28, N-[[6-[2-(3-methylsulfonylphenyl)acetyl]-6-azaspiro[2.5]octan-2-yl]methyl]furo[2,3-c]pyridine-2-carboxamide]"
10,7.14,"O=C(Cc1cncnc1)N1CCC2(CC1)CC2CNC(=O)N1Cc2ccncc2C1 (stereo not drawn) [Example 407, N-[[6-(2-pyrimidin-5-ylacetyl)-6-azaspiro[2.5]octan-2-yl]methyl]-1,3-dihydropyrrolo[3,4-c]pyridine-2-carboxamide]"
11,7.79,"CC(C)(O)COC(=O)N1CCC2(CC1)CC2CNC(=O)N1Cc2ccncc2C1 (stereo not drawn) [Example 376, (2-hydroxy-2-methyl-propyl) 2-[(1,3-dihydropyrrolo[3,4-c]pyridine-2-carbonylamino)methyl]-6-azaspiro[2.5]octane-6-carboxylate]"
12,5.87,"N#Cc1ccc(CC(=O)N2CCC3(CC2)CC3CNC(=O)c2cc3cnccc3[nH]2)cc1 (stereo not drawn) [Example 216, N-[[6-[2-(4-cyanophenyl)acetyl]-6-azaspiro[2.5]octan-2-yl]methyl]-1H-pyrrolo[3,2-c]pyridine-2-carboxamide]"
13,7.73,"O=C(NCC1CC12CCN(C(=O)c1cccc3[nH]ncc13)CC2)c1cc2ccncc2o1 (stereo not drawn) [Example 240, N-[[6-(1H-indazole-4-carbonyl)-6-azaspiro[2.5]octan-2-yl]methyl]furo[2,3-c]pyridine-2-carboxamide]"
14,7.18,"CC(C)(CO)OC(=O)N1CCC2(CC1)CC2CNC(=O)c1cc2ccncc2o1 (stereo not drawn) [Example 215, (2-hydroxy-1,1-dimethyl-ethyl) 2-[(furo[2,3-c]pyridine-2-carbonylamino)methyl]-6-azaspiro[2.5]octane-6-carboxylate]"
15,7.29,"O=C(Cc1ccncc1)N1CCC2(CC1)CC2CNC(=O)N1Cc2ccncc2C1 (stereo not drawn) [Example 190, N-[[6-[2-(4-pyridyl)acetyl]-6-azaspiro[2.5]octan-2-yl]methyl]-1,3-dihydropyrrolo[3,4-c]pyridine-2-carboxamide]"
16,5.94,"O=C(NCC1CC12CCN(C(=O)CC1NC(=O)c3ccccc31)CC2)c1cc2ccncc2o1 (stereo not drawn) [Example 77, N-[[6-[2-(3-oxoisoindolin-1-yl)acetyl]-6-azaspiro[2.5]octan-2-yl]methyl]furo[2,3-c]pyridine-2-carboxamide]"

row,pIC50,SMILES
1,7.51,"Cc1ccc2nc(C(=O)N3CCC4(CC3)CC4CNC(=O)c3cc4ccncc4o3)[nH]c2c1 (stereo not drawn) [Example 310, N-[[6-(6-methyl-1H-benzimidazole-2-carbonyl)-6-azaspiro[2.5]octan-2-yl]methyl]furo[2,3-c]pyridine-2-carboxamide]"
2,5.70,"Cc1ccc(CNC(=O)N2CCC3(CC2)CC3CNC(=O)c2cc3ccncc3o2)cc1 (stereo not drawn) [Example 162, N-[[6-(p-tolylmethylcarbamoyl)-6-azaspiro[2.5]octan-2-yl]methyl]furo[2,3-c]pyridine-2-carboxamide]"
3,5.70,"CCNC(=O)N1CCC2(CC1)CC2CNC(=O)c1cc2ccncc2o1 (stereo not drawn) [Example 172, N-[[6-(ethylcarbamoyl)-6-azaspiro[2.5]octan-2-yl)methyl]furo[2,3-c]pyridine-2-carboxamide]"
4,6.75,"O=C(NCC1CC12CCN(C(=O)c1ccc(-n3ccnc3)nc1)CC2)c1cc2ccncc2o1 (stereo not drawn) [Example 255, N-[[6-(6-imidazol-1-ylpyridine-3-carbonyl)-6-azaspiro[2.5]octan-2-yl]methyl]furo[2,3-c]pyndine-2-carboxamide]"
5,8.72,"CN1CCN(c2ccc(C(=O)N3CCC4(CC3)CC4CNC(=O)c3cc4ccncc4o3)cc2)CC1 (stereo not drawn) [Example 339, N-[[6-[4-(4-Methylpiperazin-1-yl)benzoyl]-6-azaspiro[2.5]octan-2-yl]methyl]furo[2,3-c]pyridine-2-carboxamide]"
6,6.35,"Cc1ncccc1C(=O)N1CCC2(CC1)CC2CNC(=O)c1cc2ccncc2o1 (stereo not drawn) [Example 119, N-[[6-(2-methylpyridine-3-carbonyl)-6-azaspiro[2.5]octan-2-yl]methyl]furo[2,3-c]pyridine-2-carboxamide]"
7,6.54,"Cc1ccc(C(=O)N2CCC3(CC2)CC3CNC(=O)c2cc3ccncc3o2)cn1 (stereo not drawn) [Example 233, N-[[6-(6-methylpyridine-3-carbonyl)-6-azaspiro[2.5]octan-2-yl]methyl]furo[2,3-c]pyridine-2-carboxamide]"
8,6.73,"CS(=O)(=O)Nc1ccc(C(=O)N2CCC3(CC2)CC3CNC(=O)c2cc3ccncc3o2)cc1 (stereo not drawn) [Example 84, N-[[6-[4-(methanesulfonamido)benzoyl]-6-azaspiro[2.5]octan-2-yl]methyl]furo[2,3-c]pyridine-2-carboxamide]"
9,5.70,"O=C(NCC1CC12CCN(C(=O)c1cccnc1)CC2)c1cc2ccncc2o1 (stereo not drawn) [Example 103, N-[[6-(pyridine-3-carbonyl)-6-azaspiro[2.5]octan-2-yl]methyl]furo[2,3-c]pyridine-2-carboxamide]"
10,5.70,"CC(C)(C)NC(=O)N1CCC2(CC1)CC2CNC(=O)c1cc2ccncc2o1 (stereo not drawn) [Example 182, N-[[6-(tert-butylcarbamoyl)-6-azaspiro[2.5]octan-2-yl]methyl]furo[2,3-c]pyndine-2-carboxamide]"
11,5.70,"O=C(NCC1CC12CCN(C(=O)c1cnccn1)CC2)c1cc2ccncc2o1 (stereo not drawn) [Example 112, N-[[6-(pyrazine-2-carbonyl)-6-azaspiro[2.5]octan-2-yl]methyl]furo[2,3-c]pyridine-2-carboxamide]"
12,7.01,"CS(=O)(=O)N1CCC(CC(=O)N2CCC3(CC2)CC3CNC(=O)c2cc3ccncc3o2)CC1 (stereo not drawn) [Example 142, N-[[6-[2-(1-methylsulfonyl-4-piperidyl)acetyl]-6-azaspiro[2.5]octan-2-yl]methyl]furo[2,3-c]pyridine-2-carboxamide]"
13,8.17,"O=C(NCC1CC12CCN(C(=O)c1n[nH]c3c1CCC3)CC2)c1cc2ccncc2o1 (stereo not drawn) [Example 333, N-[[6-(1,4,5,6-tetrahydrocyclopenta[c]pyrazole-3-carbonyl)-6-azaspiro[2.5]octan-2-yl]methyl]furo[2,3-c]pyridine-2-carboxamide]"
14,7.21,"O=C(CN1CCOCC1)N1CCC2(CC1)CC2CNC(=O)N1Cc2ccncc2C1 (stereo not drawn) [Example 198, N-[[6-(2-morpholinoacetyl)-6-azaspiro[2.5]octan-2-yl]methyl]-1,3-dihydropyrrolo[3,4-c]pyridine-2-carboxamide]"
15,5.70,"O=C(NCC1CC12CCN(C(=O)Cc1ccncc1)CC2)c1cc2cnccc2[nH]1 (stereo not drawn) [Example 278, N-[[6-[2-(4-pyridyl)acetyl]-6-azaspiro[2.5]octan-2-yl]methyl]-1H-pyrrolo[3,2-c]pyridine-2-carboxamide]"
